Experimental data published in the METLIN SMRT retention time set (Domingo-Almenara et al. 2019).

test: gradient 5% acetonitrile 3 min, to 50% in 2 min, to 85% in 15 min, held 3 min, 100 µL/min; conditions: column: Zorbax Extend-C18 2.1 x 50 mm; eluents: water / acetonitrile, 0.1% formic acid
Outline: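 Retention time was recorded from adduct peaks, which were picked computationally and each inspected manually. Pure standards ran in mixtures of ~100 molecules on HPLC coupled to a quadrupole time-of-flight mass spectrometer, in positive and negative ionization mode, through a Zorbax Extend-C18 column (2.1 × 50 mm, 1.8 μm) at 100 μL/min. Eluents were water and acetonitrile, each with 0.1% formic acid.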

Row | RP-LC retention time [s] | SMILES
1 | 859 | O=C1COc2ccc(S(=O)(=O)N3CCC(C(=O)Nc4cccc(Br)c4)CC3)cc2N1
2 | 1240 | CCCN1C(=O)COc2ccc(-c3noc(-c4ccccc4Cl)n3)cc21
3 | 1310 | Cc1cccc(-c2noc(C3CCCN3S(=O)(=O)c3cccc(Cl)c3C)n2)c1 (stereo not given)
4 | 1000 | CSc1ccc(-c2nc3cnccn3c2Nc2ccc(C)cc2)cc1
5 | 685 | Cn1cnc2ccc(-c3noc(-c4cccs4)n3)cc21
6 | 637 | CCn1c(C(=O)N2CCN(c3ccccn3)CC2)cc2c(=O)oc3ccccc3c21
7 | 1030 | COc1ccc(-c2noc(C3CCCN3C(=O)Nc3ccc(F)c(Cl)c3)n2)cc1 (stereo not given)
8 | 981 | O=S(=O)(c1ccc(-c2nnc(C3CC3)o2)o1)N1CCN(c2ccc(F)cc2)CC1
9 | 616 | O=C(Cn1c(=O)cc(-c2nc(C3CC3)no2)c2ccccc21)Nc1ccc(F)cc1
10 | 1190 | O=C(COc1ccc(Cl)cc1Cl)Nc1nc(-c2ccccc2)cs1
11 | 908 | O=C(C1CC1)N1c2ccccc2CC1c1nc(C2CC2)no1 (stereo not given)
12 | 1220 | CCc1nc(-c2cc(S(=O)(=O)N3CCN(c4ccc(F)cc4)CC3)c(C)s2)cs1
13 | 795 | Cc1ccccc1NS(=O)(=O)c1cc2n(c1)CCN(CC(C)C)C2=O
14 | 895 | COc1cccc(-c2noc(Cn3ccn(Cc4ccc(Cl)cc4)c(=O)c3=O)n2)c1
15 | 1150 | Cc1noc(C)c1S(=O)(=O)N1CCC2(CC1)CC(Cc1ccc(F)cc1)CCO2 (stereo not given)
16 | 810 | CCS(=O)(=O)c1ccc2c(c1)N(Cc1nc(-c3ccccc3OC)no1)C(=O)CO2
17 | 876 | CC1CCN(S(=O)(=O)c2ccc(-c3nnc(C(=O)NC4CC4)o3)cc2)CC1
18 | 1150 | Cc1cccc(NS(=O)(=O)c2cc(-c3cc(C(F)(F)F)on3)sc2C)c1
19 | 1100 | CCn1c(=O)c(N2CCCC(C(=O)N3CCN(c4cccc(OC)c4)CC3)C2)nc2ccccc21 (stereo not given)
20 | 962 | CCOc1ccccc1C(=O)n1nc(C)c(S(=O)(=O)N2CCOCC2)c1C
21 | 864 | COc1ccc(NS(=O)(=O)c2ccc(-c3nnc(C4CCC4)o3)o2)cc1
22 | 1110 | Cc1noc(C)c1-c1ccc(S(=O)(=O)N2CC=C(c3ccccc3)CC2)cc1
23 | 959 | COc1cc(OC)cc(N2C(=O)C3N=NN(Cc4nc(-c5ccccc5)no4)C3C2=O)c1 (stereo not given)
24 | 669 | C[C@H](NC(=O)C1CCCN(S(=O)(=O)c2ccc(F)cc2)C1)C(=O)O (stereo not given in full)

Second part, the compound before the results:

Row | SMILES | RP-LC retention time [s]
25 | Cn1c(CCC(=O)NCc2ccc(C(F)(F)F)cc2)nc2ccccc2c1=O | 825
26 | CCn1c(=O)c(NCCc2ccc(OC)c(OC)c2)nc2ccncc21 | 618
27 | COc1ccc(C2(C(=O)N3CCC(c4nc(CCOCC5CCCC5)no4)C3)CC2)cc1 (stereo not given) | 1060
28 | O=C(Cc1csc2nc(-c3ccccc3)cn12)N1CCN(c2ccc(Cl)cc2)CC1 | 915
29 | COc1ccc(-c2c(C(=O)Nc3ccccc3OC)nc3ccccn23)cc1 | 991
30 | O=C(CN1C(=O)C2CCCCN2c2ccc(S(=O)(=O)N3CCCC3)cc21)NCCN1CCCC1 (stereo not given) | 636
31 | COc1ccc2c(c1)C1(CCN(S(=O)(=O)c3ccc(OC)c(OC)c3)C1)C(=O)N2 (stereo not given) | 757
32 | COC(=O)c1cccc(NC(=O)CSc2cc(N3CCN(c4ccc(OC)cc4)CC3)ncn2)c1 | 905
33 | COc1ccc(-c2[nH]ncc2CN2C[C@@H]3CCN(S(C)(=O)=O)C[C@]3(CF)C2)cc1 | 590
34 | O=C(NCc1cc(F)ccc1F)C1CCc2nc(N3CCCC3)ncc2C1 (stereo not given) | 646
35 | CN(C)c1ccc(NS(=O)(=O)c2c(F)c(F)c(F)c(F)c2F)cc1 | 869
36 | COc1ccc(NC(=O)C2=C(C)C(=O)OC23CCCCCC3)cc1OC | 887
37 | Fc1cnccc1CN1CC[C@@H]2CN(Cc3ccccc3)[C@@H]2C1 | 597
38 | CCCn1c(=O)sc2cc(S(=O)(=O)N3CCC(C(=O)NC4CCC(C)CC4)CC3)ccc21 (stereo not given) | 1030
39 | O=C(Cn1c(=O)cnc2cc(C(=O)NC3CC3)ccc21)Nc1ccccc1C(F)(F)F | 646
40 | COc1ccc2nc(NC3=NCN(Cc4cccnc4)CN3)nc(C)c2c1 | 560
41 | COc1ccccc1CCNC(=O)C1CN(C(=O)c2c[nH]c3ccccc23)C1 | 673
42 | COC(=O)CCSCC(=O)Nc1ccc(C)cc1C | 742
43 | Cc1ccc(C2=NC3(CCN(C(=O)COc4ccc(Cl)cc4)CC3)ON2)cc1 | 935
44 | CNC(=O)c1cc(-c2ccc(F)cc2)nc2ccccc12 | 819
45 | Cn1cc(C(=O)N2CC(c3noc(C4CCCN4CC4CC4)n3)C2)cn1 (stereo not given) | 549

Row | SMILES | RP-LC retention time [s]
46 | CCOC(=O)CC(=O)Nc1nc(C2COc3ccccc3O2)cs1 (stereo not given) | 921
47 | CN1C(=O)Cc2cc(C(=O)NC3CCCCC3)ccc21 | 692
48 | CCN1C(=O)c2cc(C(=O)Nc3ccc(C)cc3C)nn2CC1(C)C(=O)NC1CCCC1 (stereo not given) | 800
49 | CC1CCCCN1CCN(CCC(=O)N1CCNCC1)C(=O)c1ccc(C(F)(F)F)cc1 (stereo not given) | 569
50 | COc1ccc(CN(Cc2ccccc2)Cc2cc(=O)n3cc(C)ccc3n2)cc1OC | 616
51 | Cc1cc(C)cc(NC(=O)CN2C(=O)CSc3ccc(C(=O)N(C)C)cc32)c1 | 906
52 | COC(=O)CNC(=O)N1CCN(Cc2ccc(C)cc2)c2ncccc21 | 651
53 | COc1ccc(C2Cn3cnc(C(=O)N4CCC(C(=O)NC5CCCCCCC5)CC4)c3CO2)cc1 (stereo not given) | 862
54 | Cc1ccc(C(CNC(=O)c2cc(=O)c3ccccc3o2)N(C)C)cc1 (stereo not given) | 626
55 | CCSc1nnc(-c2nn(C)c3c2CN(S(=O)(=O)c2ccc(F)c(C)c2)CC3)n1CC | 978
56 | CC(C)(C)n1nc2c(c1NC(=O)c1cccs1)CS(=O)(=O)C2 | 690
57 | COC(=O)c1ccc(NC(=O)c2cnc(-c3ccc(C)cc3)nc2-c2ccncc2)cc1 | 961
58 | CCCn1cc(CCNC(=O)Nc2ccc(Cl)cc2)c2cccnc21 | 812
59 | O=C(C1CCCO1)N1CC2CN(S(=O)(=O)c3cccc(F)c3)CC(C1)O2 (stereo not given) | 676
60 | CCCNC(=O)CCc1ccc2nc(-c3ccccc3)[nH]c2c1 | 593
61 | CC1CN(C2CCCCC2)c2nc3c(c(=O)n(CCCO)c(=O)n3C)n2C1 (stereo not given) | 803
62 | O=C1CCCC(=O)C1C(=O)c1ccc(C(F)(F)F)cc1[N+](=O)[O-] | 1070
63 | O=C1[C@H]2CN(Cc3cc(Cl)ccc3F)C[C@H]2C(=O)N1CCN1CCc2ccccc2C1 | 684
64 | CC(=O)N1CCc2cc(N3CC(C(=O)Nc4ccccc4OC(F)(F)F)CC3=O)ccc21 (stereo not given) | 766
65 | CC(C)(C)C(=O)Nc1ccc(SCc2nnc(-c3ccc4c(c3)OCO4)o2)cc1 | 945
